From ChEMBL document CHEMBL6177980 (J Med Chem, 2025)
Active and inactive are the calls of the source. The rule behind the calls is not given here.

Tests used:
[1] = Cytotoxicity against African green monkey Vero cells; assay type: toxicity, cell-based; details: chlorocebus sabaeus
[2] = system: Mammarenavirus choriomeningitidis; experiment: In vivo antiviral activity against LCMV infected in C57BL/6-Prf1tm1Sdz/J mouse assessed as void of inflammatory cell inflammation in spleen at 1 to 5 mg/kg, po qd for 7 days; assay type: functional, organism-based; details: dose 1-5 mg/kg, time 7.0 day
[3] = system: Mammarenavirus choriomeningitidis; experiment: Antiviral activity against LCMV infected in C57BL/6-Prf1tm1Sdz/J mouse assessed as reduction in viral titer in lung treated orally once daily for 7 days by RT-qPCR analysis; assay type: functional, organism-based; details: dose 1-5 mg/kg, route po, time 7.0 day
[4] = system: Mammarenavirus choriomeningitidis; experiment: In vivo antiviral activity against LCMV infected in C57BL/6-Prf1tm1Sdz/J mouse assessed as void of necrosis in spleen at 1 to 5 mg/kg, po qd for 7 days; assay type: functional, organism-based; details: dose 1-5 mg/kg, time 7.0 day
[5] = Prodrug conversion in Beagle dog assessed as volume of distribution at steady state of 4'-Fluorouridine metabolite treated orally or intravenously by LC-MS/MS analysis; assay type: ADME, Canis lupus familiaris; details: in vivo, po
[6] = Stability in SGF assessed as compound degradation measured for 24 hrs by HPLC analysis; assay type: physicochemical; details: simulated gastric fluid (SGF), read-out: Drug degradation
[7] = Prodrug conversion in C57BL/6J mouse liver microsomes assessed as parent nucleoside metabolite formation at 1 uM measured up to 60 mins in presence of NADPH/UDPGA by LC-MS/MS analysis; assay type: ADME, Microsome; details: 1 h
[8] = Prodrug conversion in C57BL/6J mouse assessed as AUC (0 to t) of 4'-Fluorouridine metabolite at 2 mg/kg, po by LC-MS/MS analysis; assay type: ADME, organism-based; details: in vivo
[9] = Prodrug conversion in Sprague-Dawley rat assessed as 4'-Fluorouridine-NTP metabolite formation in brain at 6 mg/kg, po measured for 0.5 to 24 hrs by LC-MS/MS analysis; assay type: ADME, organism-based; details: in vivo, time 0.5-24 hrs
[10] = Prodrug conversion in Beagle dog liver microsomes assessed as parent nucleoside metabolite formation at 1 uM measured up to 60 mins in presence of BNPP/NADPH/UDPGA by LC-MS/MS analysis; assay type: ADME, Canis lupus familiaris, Microsome; details: 1 h
[11] = Prodrug conversion in Beagle dog assessed as AUC (0 to t) of 4'-Fluorouridine metabolite at 10 mg/kg, po by LC-MS/MS analysis; assay type: ADME, organism-based, Canis lupus familiaris; details: in vivo
[12] = system: Mammarenavirus choriomeningitidis; experiment: Antiviral activity against LCMV infected in C57BL/6-Prf1tm1Sdz/J mouse assessed as reduction in viral copy number in spleen treated orally once daily for 7 days by RT-qPCR analysis; assay type: functional, organism-based; details: dose 1-5 mg/kg, route po, time 7.0 day
[13] = Prodrug conversion in Sprague-Dawley rat liver microsomes assessed as parent nucleoside metabolite formation at 1 uM measured up to 60 mins in presence of BNPP/NADPH/UDPGA by LC-MS/MS analysis; assay type: ADME, Microsome; details: 1 h
[14] = system: Mammarenavirus choriomeningitidis; experiment: In vivo antiviral activity against LCMV infected in C57BL/6-Prf1tm1Sdz/J mouse assessed as improvement in splenic tissue lesion at 1 to 5 mg/kg, po qd for 7 days; assay type: functional, organism-based; details: dose 1-5 mg/kg, time 7.0 day
[15] = Prodrug conversion in C57BL/6J mouse assessed as AUC (0 to t) of 4'-Fluorouridine metabolite at 6 mg/kg, po by LC-MS/MS analysis; assay type: ADME, organism-based; details: in vivo
[16] = Prodrug conversion in C57BL/6J mouse assessed as Cmax of 4'-Fluorouridine metabolite at 2 mg/kg, po by LC-MS/MS analysis; assay type: ADME, organism-based; details: in vivo
[17] = system: Mammarenavirus choriomeningitidis; experiment: In vivo antiviral activity against LCMV infected in C57BL/6-Prf1tm1Sdz/J mouse assessed as improvement in body weight loss at 1 to 5 mg/kg, po qd treated for 7 days; assay type: functional, organism-based; details: dose 1-5 mg/kg, time 7.0 day
[18] = system: Mammarenavirus choriomeningitidis; experiment: In vivo antiviral activity against LCMV infected in C57BL/6-Prf1tm1Sdz/J mouse assessed as appearance of clear boundary between red and white pulp in spleen at 1 to 5 mg/kg, po qd for 7 days; assay type: functional, organism-based; details: dose 1-5 mg/kg, time 7.0 day
[19] = Prodrug conversion in Sprague-Dawley rat assessed as 4'-Fluorouridine metabolite formation in small intestine at 6 mg/kg, po measured for 0.5 to 24 hrs by LC-MS/MS analysis; assay type: ADME, organism-based; details: in vivo, time 0.5-24 hrs
[20] = Prodrug conversion in Sprague-Dawley rat assessed as 4'-Fluorouridine metabolite formation in kidney at 6 mg/kg, po measured for 0.5 to 24 hrs by LC-MS/MS analysis; assay type: ADME, organism-based; details: in vivo, time 0.5-24 hrs
[21] = Prodrug conversion in C57BL/6J mouse assessed as AUC (0 to t) of 4'-Fluorouridine metabolite at 20 mg/kg, po by LC-MS/MS analysis; assay type: ADME, organism-based; details: in vivo
[22] = Prodrug conversion in Sprague-Dawley rat assessed as 4'-Fluorouridine metabolite formation in stomach at 6 mg/kg, po measured for 0.5 to 24 hrs by LC-MS/MS analysis; assay type: ADME, organism-based; details: in vivo, time 0.5-24 hrs
[23] = Stability of compound at pH 6.8 assessed as change in purity at 1 mg/ml incubated for 12 hrs by HPLC analysis; assay type: physicochemical; details: buffer, pH 6.8, 12 h
[24] = Stability of compound at pH 1.5 assessed as change in purity at 1 mg/ml incubated for 12 hrs by HPLC analysis; assay type: physicochemical; details: buffer, pH 1.5, 12 h
[25] = system: Mammarenavirus choriomeningitidis; experiment: In vivo antiviral activity against LCMV infected in C57BL/6-Prf1tm1Sdz/J mouse assessed as animal survival rate at 1 to 5 mg/kg, po qd treated for 7 days relative to control; assay type: functional; details: dose 1-5 mg/kg, time 7 day
[26] = system: Mammarenavirus choriomeningitidis; experiment: Antiviral activity against LCMV infected in C57BL/6-Prf1tm1Sdz/J mouse assessed as reduction in viral copy number in liver treated orally once daily for 7 days by RT-qPCR analysis; assay type: functional, organism-based; details: dose 1-5 mg/kg, route po, time 7.0 day
[27] = Prodrug conversion in Beagle dog assessed as half life of 4'-Fluorouridine metabolite treated orally or intravenously by LC-MS/MS analysis; assay type: ADME, Canis lupus familiaris; details: in vivo, po
[28] = Prodrug conversion in Beagle dog assessed as AUC (0 to t) of 4'-Fluorouridine metabolite at 3 mg/kg, po by LC-MS/MS analysis; assay type: ADME, organism-based, Canis lupus familiaris; details: in vivo
[29] = Prodrug conversion in C57BL/6J mouse plasma assessed as parent nucleoside metabolite formation administered orally or intravenously; assay type: ADME, cell-free; details: po
[30] = Prodrug conversion in Sprague-Dawley rat assessed as 4'-Fluorouridine-NTP metabolite formation in thymus at 6 mg/kg, po measured for 0.5 to 24 hrs by LC-MS/MS analysis; assay type: ADME, organism-based; details: in vivo, time 0.5-24 hrs
[31] = Cmax in fasted Sprague-Dawley rat at 23 mg/kg, po by LC-MS/MS analysis; assay type: ADME, organism-based; details: in vivo
[32] = Stability of compound at pH 4.0 assessed as change in purity at 1 mg/ml incubated for 4 hrs by HPLC analysis; assay type: physicochemical; details: buffer, pH 4, 4 h
[33] = Prodrug conversion in Beagle dog assessed as AUC (0 to t) of 4'-Fluorouridine metabolite at 1 mg/kg, iv by LC-MS/MS analysis; assay type: ADME, organism-based, Canis lupus familiaris; details: in vivo
[34] = Prodrug conversion in C57BL/6J mouse assessed as Cmax of 4'-Fluorouridine metabolite at 20 mg/kg, po by LC-MS/MS analysis; assay type: ADME, organism-based; details: in vivo
[35] = system: Mammarenavirus choriomeningitidis; experiment: In vivo antiviral activity against LCMV infected in C57BL/6-Prf1tm1Sdz/J mouse assessed as improvement in lymphocytes percentage at 1 to 5 mg/kg, po qd treated for 7 days; assay type: functional, organism-based; details: dose 1-5 mg/kg, time 7.0 day

With `CC(C)C(=O)OC[C@@]1(F)O[C@@H](n2ccc(=O)n(COC(=O)c3cccnc3)c2=O)[C@H](OC(=O)C(C)C)[C@@H]1OC(=O)C(C)C` the CC50 [1] was over 100 µM, the Activity [2] was “Active” and the Activity [3] was “Dose-dependent-effect”. For the same compound, the Activity [4] was “Active”, the Vdss [5] was 3.07 L/kg and the degraded at 24 h [6] was under 5%. The Drug metabolism [7] was “metabolite_detected”, the AUCt [8] was 826 ng·h/mL and the Drug metabolism [9] was “metabolite_detected”. The Drug metabolism [10] was “metabolite_notdetected”, the AUCt [11] was 3601 ng·h/mL and the Activity [12] was “Dose-dependent-effect”. For the same compound, the Drug metabolism [13] was “metabolite_notdetected”, the Activity [14] was “Active” and the AUCt [15] was 1729 ng·h/mL. The Cmax [16] was 57 ng/mL, the Activity [17] was “Active” and the Activity [18] was “Active”. The Drug metabolism [19] was “metabolite_detected”, the Drug metabolism [20] was “metabolite_detected” and the AUCt [21] was 7586 ng·h/mL. For the same compound, the Drug metabolism [22] was “metabolite_detected”, the Activity [23] was -0.3% and the Activity [24] was -4.2%. The Survival [25] was 100%, the Activity [26] was “Dose-dependent-effect” and the t1/2 [27] was 1 h. The AUCt [28] was 903 ng·h/mL, the Drug metabolism [29] was “metabolite_detected” and the Drug metabolism [30] was “metabolite_detected”. For the same compound, the Cmax [31] was 1230 ng/mL, the Activity [32] was 0% and the AUCt [33] was 282 ng·h/mL. For the same compound, the Cmax [34] was 788 ng/mL and the Activity [35] was “Active”.
